Measurements reported in patent US12414960B2, “Analogues of oleuropein and oleacein and uses thereof” (Attica Sciences Ltd., priority 2020, dated 2025).

What was measured:
[1] = system: HeLa cervical cancer cells; assay: XTT cell growth assay, HeLa; type: cell-based, human; details: Homo sapiens, HeLa, 24 h, NS = not statistically significant, read-out: Effectiveness to suppress HeLa cell growth (cell growth inhibition)
Text: (§1) The XTT assay is used to measure cellular metabolic activity as an indicator of cell viability, proliferation and cytotoxicity. This non-radioactive, colorimetric assay system was first described by Scudiero, et al. in 1988 (Paull, Kenneth D. et al., J Heterocycl Chem, 1988, 25: 911-914; Scudiero, Dominic A. et al., Cancer Res, 1988, 48: 4827-4833) and improved in subsequent years by several other investigators (Weislow, Owen S. et al., J Natl Cancer Inst, 1989, 81(8): 577-586; Roehm, N. W. et al., J Immunol Methods, 1991, 142: 257-265).
(§2) The XTT assay is based on the reduction of a yellow tetrazolium salt (sodium 3′-[1-(phenylaminocarbonyl)-3,4-tetrazolium]-bis (4-methoxy6-nitro) benzene sulfonic acid hydrate or XTT) to an orange formazan dye by metabolically active cells (FIG. 8). The formazan dye formed is soluble in aqueous solutions and is directly quantified using a scanning multiwell spectrophotometer (ELISA reader). An increase in number of living cells results in an increase in the overall activity of mitochondrial dehydrogenases in the sample. This increase directly correlates to the amount of orange formazan formed, as monitored by the absorbance. Reduced number of living cells leads to reduced metabolism of quaternary salt and therefore reduced absorption.
(§3) Cell viability was assessed using the XTT assay kit (Roche, Mannheim, Germany) as described previously (Kouka, Paraskevi et al., Oxid Med Cell Longev. 2019, Article ID 1870965). Briefly, cancer cells per well were cultured in a 96-well plate in Dulbecco's modified Eagle's medium (DMEM). Following a 24 h incubation, 5, 10 and 50 μM of the tested GS compound was diluted in a serum-free DMEM and administered for 24 h. Subsequently, 50 μL of the XTT reagent (50:1) was added to each well. After 4 h of incubation, the absorbance was monitored at 450 nm and also at 630 nm as a reference wavelength in a BioTek ELx800 microplate reader (BioTek Instruments Inc., Winooski, VT, USA). As a negative control, samples containing serum-free DMEM only were used.
HeLa is a human immortal cell line used in scientific research. It is the oldest and most commonly used human cell line. The line was derived from cervical cancer cells taken on Feb. 8, 1951 from Henrietta Lacks, a patient who died of cancer on Oct. 4, 1951.
(§4) The effects of exemplary compounds on cancer cell lines and one non-tumorigenic cell line (control) were investigated using a high throughput screening assay. More specifically, the effects of the GS compounds on cell growth was evaluated by the XTT assay for cell lines HepG2, HeLa, MCF7 ER+, MDA-MB-231, and MKN-45, and by the Cell Glo luminescence assay for cell lines MIA PaCa-2, HCT-116, MCF-10A, and PANC-1.

[2] = system: MCF-7 ER+ breast cancer cells; assay: XTT cell growth assay, MCF-7 ER+; type: cell-based, human; details: Homo sapiens, MCF7, 24 h, NS = not statistically significant, read-out: Effectiveness to suppress MCF7 cell growth (cell growth inhibition)
Text: as §1, §2, §3
MCF-7 ER+ is a human breast cancer cell line isolated in 1970 from a person. Prior to MCF-7, it was not possible for cancer researchers to obtain a mammary cell line that was capable of living longer than a few months.
as §4

[3] = system: HCT-116 colon cancer cells; assay: Cell Glo luminescence cell growth assay, HCT-116; type: cell-based, human; details: Homo sapiens, HCT-116, 24 h, NS = not statistically significant, read-out: Effectiveness to suppress HCT-116 cell growth (cell growth inhibition)
Text: (§5) The CellTiter-Glo® Luminescent Cell Viability Assay (Promega Corporation; Madison, WI) is a homogeneous method of determining the number of viable cells in culture based on quantitation of the ATP present, an indicator of metabolically active cells. The homogeneous assay procedure involves adding the single reagent (CellTiter-Glo® Reagent) directly to cells cultured in serum-supplemented medium. The homogeneous “add-mix-measure” format results in cell lysis and generation of a luminescent signal proportional to the amount of ATP present. The amount of ATP is directly proportional to the number of cells present in culture.
(§6) Cancer cells (3,000 cells/well) were harvested in a 96-well plate. Then, the cancer cells were treated with GS compounds and incubated for 24 hours. The MT Cell Viability Substrate, NanoLuc® Enzyme and cell culture medium was equilibrated to 37° C. The 2× RealTime-Glo™ reagent was prepared by diluting the MT Cell Viability Substrate and NanoLuc® Enzyme in 37° C. cell culture medium to a 2× concentration for each reagent. For example, 1 mL of 2× RealTime-Glo™ reagent was prepared by adding 2 μL of MT Cell Viability Substrate, 1,000×, and 2 μL of NanoLuc® Enzyme, 1,000×, to 996 μL of cell culture medium to form the 2× RealTime-Glo™ reagent. Then, an equal volume of 2× RealTime-Glo™ reagent was added to the cancer cells. The cells were kept for ˜20 minutes in the cell culture incubator and then luminescence was measured by using a plate-reading luminometer.
HCT-116 is a human colorectal cancer cell lines that has a mutation in RAS proto-oncogene.
as §4

[4] = ABTS radical cation scavenging assay; type: biochemical; details: NS = not statistically significant
Text: The method of estimating antioxidant capacity, based on the ability to interact with the ABTS.+ radical cation was first performed by Miller et al. in 1993 (Miller, Nicholas et al., Clinical Science, 1993, 84: 407-412, “A novel method for measuring the antioxidant capacity and its application to monitoring the antioxidant status in premature neonates”). The mechanism of interaction of the antioxidant agents to be examined with the ABTS.+ radical is similar to that of the DPPH. radical, which can be inactivated either by the addition of an electron or by the addition of a hydrogen atom. However, unlike the DPPH. radical, which is a stable radical from the beginning, the ABTS.+ radical must be produced by the oxidation of ABTS. Thus, in order to estimate the antioxidant capacity of a substance, the formation of the ABTS.+ radical must first precede and the addition of the substance to be examined must follow. The addition of the antioxidant agent is performed after the production of the root ABTS.+ to avoid the interaction of the antioxidant agents with the oxidizing agents used for the oxidation of ABTS.
The oxidation of ABTS takes place either through chemical reactions with various reagents or through the action of enzymes such as peroxidases. The ABTS.+ radical from the moment it is formed is stable, has a green color and absorbs at 730 nm. When a substance with antioxidant activity is added to the solution, then the ABTS.+ radical is reduced by the addition of a hydrogen (or electron) atom, resulting in reduced visual absorption.
To assess the antioxidant capacity of the samples, the oxidation of ABTS was performed enzymatically through the action of horseradish peroxidase (HRP), in the presence of H2O2 (FIG. 3)
The anti-oxidant capacity of the GS compounds was evaluated by performing the ABTS assay as previously described (Kouka, Paraskevi et al., Oxid Med Cell Longev. 2019, Article ID 1870965). Briefly, in a total reaction volume of 1 mL in distilled water (dH2O), ABTS.^+ (1 mM), H2O2 (30 μM), and horseradish peroxidase (HRP) (6 μM) in 50 mM phosphate-buffered saline were added. The solution was incubated for 45 min at room temperature (RT) in the dark. Finally, 10 μL of the tested GS compound at various concentrations was added, and the absorbance was monitored on a Hitachi U-1900 radio beam spectrophotometer (serial no. 2023-029; Hitachi Ltd.) at 730 nm. In each experiment, a blank without the HRP was used, while the ABTS.^+ radical solution without the extract was used as the control. The RSC percentage of the tested extracts was calculated using the following equation: RSC (%)=[(ODcontrol−ODcompound)/ODcontrol]×100, where ODcontrol and OD sample are the optical density (OD) values of the control and the test sample, respectively.

[5] = system: MDA-MB-231 triple negative breast cancer cells; assay: XTT cell growth assay, MDA-MB-231; type: cell-based, human; details: Homo sapiens, MDA-MB-231, 24 h, NS = not statistically significant, read-out: Effectiveness to suppress MDA-MB-231 cell growth (cell growth inhibition)
Text: as §1, §2, §3
MDA-MB-231 is a human epithelial breast cancer cell line that was established from a pleural effusion of a person with a metastatic mammary adenocarcinomal and is one of the most commonly used breast cancer cell lines in medical research laboratories.
as §4

HepG2 liver cancer cells = assay: XTT cell growth assay, HepG2; type: cell-based, human; details: Homo sapiens, HepG2, 24 h, NS = not statistically significant, read-out: Effectiveness to suppress HepG2 cell growth (cell growth inhibition)
Text: as §1, §2, §3
Hep G2 (or HepG2) is a human liver cancer cell line. Hep G2 is an immortal cell line which was derived from the liver tissue of an adolescent with a well-differentiated hepatocellular carcinoma. Hep G2 cells are a suitable in vitro model system for the study of polarized human hepatocytes.
as §4

pACLY (S455) = assay: ELISA of pACLY (S455) / ACLY enzymatic activity in PANC-1 cells; type: cell-based, human; details: 5 μM
Procedure: ELISA assay was used to evaluate the effect of GS compounds on protein activity levels in PANC-1 cancer cells. PANC-1 cells were serum-starved overnight and then treated with rIGF1 (100 ng/mL) for 24 hours, with or without GS27 (5 μM). The levels of the following proteins were evaluated by ELISA assay: a) p70 S6 (T389) (cat no. 54164C, Cell Signaling); b) pAKT (S473), (cat no. 80895, Cell Signaling); c) pACLY (S455), (cat no. okag1672, Avivasysbio); d) pAMPK (T172) (cat no. 7959C, Cell Signaling) and e) p65/NFKB (S536), (cat no. 7173, Cell Signaling).
PANC-1 is a human pancreatic ductal adenocarcinoma cell line derived from the carcinoma of a person.
The molecular mechanism of action of GS27, a compound that has exerted potent anti-cancer activity in different cancer cell lines including pancreatic cancer cells, was investigated. Oleacein has been implicated to have anti-inflammatory and metabolic effects, thus the potential effects of GS27 in different metabolic and inflammatory pathways were evaluated. Specifically, the protein levels of p70 S6 (T389), pAKT (S473), pACLY (S455), pAMPK (T172) and p65/NFKB (S536) were evaluated by ELISA assay in PANC-1 pancreatic cancer cells treated with 5 μM GS27. GS27 reduced p70 S6 and AKT phosphorylation levels, while it increased AMPK phosphorylation.
The effects of different GS compounds on ACLY enzymatic activity were evaluated by ELISA assay in PANC-1 pancreatic cancer cells. […] This finding is unexpected, since GS21 has a very similar structure with GS27, with the only difference being the presence of an oxygen atom in ester GS21 instead of a sulfur atom in thioester GS27.

[6] = Deoxyribose degradation assay (hydroxyl radical scavenging); type: biochemical; details: NS = not statistically significant
Procedure: The hydroxyl radical (OH.) is an extremely reactive in biological systems and has been implicated as highly damaging species in free radical pathology, capable of damaging biomolecules of the living cells. These radical combines with nucleotides in DNA and cause strand breakage leading to carcinogenesis, mutagenesis and cytotoxicity. Hydroxyl radical (OH.) scavenging capacity of an extract is directly related to its antioxidant activity.
The effect of extracts on hydroxyl radicals was assayed by using the deoxyribose method. 2-Deoxyribose is degraded on exposure to hydroxyl radicals generated by Fenton's reaction. The ability to neutralize the OH. is estimated as the rate of inhibition of the oxidation of 2-deoxyribose by the OH. (FIG. 5).
The measurement of the hydroxyl radical scavenging activity was evaluated for each of the GS compound by evaluating the pink chromogen absorption at 532 nm by spectrophotometry as described previously (Perjesi, Pal et al., Open Med Chem J., 2011, 5: 61-67

[7] = system: MKN-45 gastric cancer cells; assay: XTT cell growth assay, MKN-45; type: cell-based, human; details: Homo sapiens, MKN-45, 24 h, NS = not statistically significant, read-out: Effectiveness to suppress MKN-45 cell growth (cell growth inhibition)
Text: as §1, §2, §3
MKN-45 is a human gastric adenocarcinoma, established from the poorly differentiated adenocarcinoma of the stomach (medullary type) of a person.
as §4

[8] = system: MIA PaCa-2 pancreatic cancer cells; assay: Cell Glo luminescence cell growth assay, MIA PaCa-2; type: cell-based, human; details: Homo sapiens, MIA PaCa-2, 24 h, NS = not statistically significant, read-out: Effectiveness to suppress MIA PaCa-2 cell growth (cell growth inhibition)
Text: as §5, §6
MIA PaCa-2 is a human pancreatic ductal adenocarcinoma cell line derived from the carcinoma of a person.
as §4

C/C=C1/[C@H](OC2OC(CO)C(O)C(O)C2O)OC=C(C(=O)O)[C@H]1CC(=O)OCCc1cccc(O)c1 (stereo in doubt) [GS14, (2S,4S,E)-3-ethylidene-4-(2-(3-hydroxyphenethoxy)-2-oxoethyl)-2-{[(2R,3S,4R,5R,6S)-3,4,5-trihydroxy-6-(hydroxymethyl)tetrahydro-2H-pyran-2-yl]oxy}-3,4-dihydro-2H-pyran-5-carboxylic acid] showed an inhibition at 50 µM [1] of 29.5%, an inhibition at 50 µM [2] of 28.4% and an inhibition at 1 µM [3] of 26.4%. The “ABTS Radical Cation Scavenging Assay IC50” value [4] was 66 μg extract/mL, the inhibition at 50 µM [5] was 38.2% and the inhibition at 50 µM (HepG2 liver cancer cells) was 10%.

In the case of C/C=C(/C=O)[C@@H](CC=O)CC(=O)OCCc1ccccc1 [GS21, (35,4E)-4-formyl-3-(2-oxoethyl)-4-hexenoic acid 2-phenylethyl ester], the inhibition at 50 µM [1] is reported as 75.8%, the inhibition at 50 µM [2] is reported as 66% and the “ACLY enzymatic activity (ELISA)” value (pACLY (S455)) is reported as “small effect”. The “Deoxyribose Degradation Assay IC50” value [6] was 14.4 μg extract/mL, the inhibition at 1 µM [3] was 21.5% and the inhibition at 50 µM [7] was 49.4%. For the same molecule, the inhibition at 50 µM [5] was 52.5%.

In the case of C/C=C(/C=O)[C@@H](CC=O)CC(=O)OCCC1CCCCC1 [GS22, 2-cyclohexylethyl (S,E)-4-formyl-3-(2-oxoethyl)hex-4-enoate], the inhibition at 50 µM [1] is reported as 48.6%, the “Deoxyribose Degradation Assay IC50” value [6] is reported as 16.8 μg extract/mL and the inhibition at 50 µM [8] is reported as 28%. It also gave an inhibition at 50 µM [7] of 35.8%, an inhibition at 50 µM [5] of 48% and an inhibition at 50 µM (HepG2 liver cancer cells) of 66.8%.
